Article doi:10.1101/2024.10.09.24315180v1, “Schizandrin A suppressed pancreatic cancer proliferation and cancer associated fibroblast activation via inhibiting the COX-2/ALOX5 shunting” (medrxiv, 2024)

Experiments:
[1] = molecular target: T1, COX-2 (Homo sapiens, UniProt P35354); assay: SPR, Biacore T200, CM5 chip, multi-cycle; format: binding
T1 construct: gene PTGS2; immobilised on CM5 chip
T1 sequence (P35354 18-604): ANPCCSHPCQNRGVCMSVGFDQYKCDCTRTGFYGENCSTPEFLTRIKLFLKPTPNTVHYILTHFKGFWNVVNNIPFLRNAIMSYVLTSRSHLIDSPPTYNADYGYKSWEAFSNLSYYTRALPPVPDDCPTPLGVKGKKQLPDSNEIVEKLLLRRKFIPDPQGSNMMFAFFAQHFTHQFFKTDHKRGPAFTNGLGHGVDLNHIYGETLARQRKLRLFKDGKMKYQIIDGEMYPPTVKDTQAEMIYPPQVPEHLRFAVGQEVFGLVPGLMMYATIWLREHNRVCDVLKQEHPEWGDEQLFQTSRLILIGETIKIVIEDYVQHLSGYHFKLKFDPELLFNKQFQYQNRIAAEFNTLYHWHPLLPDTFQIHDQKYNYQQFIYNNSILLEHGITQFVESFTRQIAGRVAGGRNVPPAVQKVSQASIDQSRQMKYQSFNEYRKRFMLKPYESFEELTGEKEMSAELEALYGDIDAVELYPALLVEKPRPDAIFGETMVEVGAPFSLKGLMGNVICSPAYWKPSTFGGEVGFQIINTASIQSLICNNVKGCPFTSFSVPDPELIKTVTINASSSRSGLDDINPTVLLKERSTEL

[2] = molecular target: T2, ALOX5 (Homo sapiens, UniProt P09917); assay: SPR, Biacore T200, CM5 chip, multi-cycle; format: binding
T2 construct: immobilised on CM5 chip
T2 sequence (P09917 1-674): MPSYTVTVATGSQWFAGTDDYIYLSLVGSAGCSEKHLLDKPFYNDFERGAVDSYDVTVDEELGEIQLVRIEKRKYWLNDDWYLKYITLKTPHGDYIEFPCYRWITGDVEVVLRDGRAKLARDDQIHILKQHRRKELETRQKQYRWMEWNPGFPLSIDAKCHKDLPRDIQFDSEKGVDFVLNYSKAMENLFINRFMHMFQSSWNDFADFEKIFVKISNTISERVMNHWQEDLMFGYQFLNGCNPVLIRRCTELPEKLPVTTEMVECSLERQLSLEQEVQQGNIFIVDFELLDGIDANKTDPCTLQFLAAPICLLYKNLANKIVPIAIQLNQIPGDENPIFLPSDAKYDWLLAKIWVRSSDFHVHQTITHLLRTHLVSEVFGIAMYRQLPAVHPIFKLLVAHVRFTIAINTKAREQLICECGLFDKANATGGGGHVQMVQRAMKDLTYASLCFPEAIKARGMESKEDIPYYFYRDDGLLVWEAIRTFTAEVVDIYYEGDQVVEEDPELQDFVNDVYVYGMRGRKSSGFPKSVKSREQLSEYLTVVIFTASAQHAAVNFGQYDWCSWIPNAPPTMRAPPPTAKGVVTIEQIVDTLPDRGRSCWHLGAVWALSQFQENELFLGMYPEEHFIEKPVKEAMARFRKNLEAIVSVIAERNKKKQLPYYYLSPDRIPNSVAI

With `COc1cc2c(c(OC)c1OC)-c1c(cc(OC)c(OC)c1OC)C[C@H](C)[C@H](C)C2` [Schizandrin A] as the molecule, how does the Kd [1] read?
Its Kd is 14.8 µM.

What about the Kd [2] of the same molecule?
Its Kd is 21.8 µM.
